Source: patent publication US20240382491A1, “METHODS FOR TREATING NEUROGENERATIVE DISEASES” (PTC THERAPEUTICS, INC., priority 2021, published 2024)

test system: MAPT 3R mRNA (Microtubule associated protein Tau); test: RT-qPCR Assay to Quantify MAPT 3R mRNA in Cells; assay type: cell-based; conditions: MAPT 3R mRNA by RT-qPCR, GAPDH assay in same reaction; cells treated 24 h; 7-point concentration curve

| Compound | EC (2-fold increase) [µM] |
| --- | --- |
| C[C@H](N)Cc1c(F)c2c(NCc3ccncc3F)nc(Cl)nc2n1C [Cpd 41, 6-[(2S)-2-aminopropyl]-2-chloro-5-fluoro-N-[(3-fluoropyridin-4-yl)methyl]-7-methyl-7H-pyrrolo[2,3-d]pyrimidin-4-amine] | 0.5 to 1 |
| C[C@H](N)Cc1c(F)c2c(NCc3ccco3)nc(Cl)nc2n1C [Cpd 24, 6-[(2S)-2-aminopropyl]-2-chloro-5-fluoro-N-[(furan-2-yl)methyl]-7-methyl-7H-pyrrolo[2,3-d]pyrimidin-4-amine] | 0.05 to 0.5 |
| C[C@H](N)Cc1c(F)c2c(NCc3cccs3)nc(Cl)nc2n1C [Cpd 49, 6-[(2S)-2-aminopropyl]-2-chloro-5-fluoro-7-methyl-N-[(thiophen-2-yl)methyl]-7H-pyrrolo[2,3-d]pyrimidin-4-amine] | 0.05 to 0.5 |
| Cc1c(C[C@H](C)N)n(C)c2nc(Cl)nc(NCc3ccco3)c12 [Cpd 35, 6-[(2S)-2-aminopropyl]-2-chloro-N-[(furan-2-yl)methyl]-5,7-dimethyl-7H-pyrrolo[2,3-d]pyrimidin-4-amine] | 0.05 to 0.5 |
| C[C@H](N)Cc1c(F)c2c(NCc3ccncc3)nc(Cl)nc2n1C [Cpd 43, 6-[(2S)-2-aminopropyl]-2-chloro-5-fluoro-7-methyl-N-[(pyridin-4-yl)methyl]-7H-pyrrolo[2,3-d]pyrimidin-4-amine] | 0.5 to 1 |
| CNCCc1[nH]c2nc(Cl)nc(NCc3ccco3)c2c1Cl [Cpd 17, 2,5-dichloro-N-[(furan-2-yl)methyl]-6-[2-(methylamino)ethyl]-7H-pyrrolo[2,3-d]pyrimidin-4-amine] | 1 to 1.5 |
| C[C@H](N)Cc1c(Cl)c2c(NCc3ccco3)nc(Cl)nc2n1C [Cpd 23, 6-[(2S)-2-aminopropyl]-2,5-dichloro-N-[(furan-2-yl)methyl]-7-methyl-7H-pyrrolo[2,3-d]pyrimidin-4-amine] | 0.05 to 0.5 |
| C[C@H](N)Cc1c(F)c2c(NCc3nccs3)nc(Cl)nc2n1C [Cpd 38, 6-[(2S)-2-aminopropyl]-2-chloro-5-fluoro-7-methyl-N-[(1,3-thiazol-2-yl)methyl]-7H-pyrrolo[2,3-d]pyrimidin-4-amine] | 0.5 to 1 |
| C[C@H](N)Cc1[nH]c2nc(Cl)nc(NCc3ccco3)c2c1F [Cpd 10, 6-[(2S)-2-aminopropyl]-2-chloro-5-fluoro-N-[(furan-2-yl)methyl]-7H-pyrrolo[2,3-d]pyrimidin-4-amine] | 0.05 to 0.5 |

test system: IKBKAP gene; test: not given; conditions: as reported in International Publication No. WO2016/115434; cited from earlier work

| Compound | potency in correcting mRNA splicing and promoting exon 20 inclusion in the IKBKAP gene |
| --- | --- |
| Clc1nc(NCc2ccncc2)c2cc[nH]c2n1 [Comparison Compound 1, 2-chloro-N-(pyridin-4-ylmethyl)-7H-pyrrolo[2,3-d]pyrimidin-4-amine] | very potent |
